The record followed here is patent US11358959B2, “Benzothiophene and benzothiazole compounds and methods of use thereof” (Araxes Pharma LLC, priority 2017, dated 2022).

T1 sequence (P01116 1-169 isoform P01116-2 G12C): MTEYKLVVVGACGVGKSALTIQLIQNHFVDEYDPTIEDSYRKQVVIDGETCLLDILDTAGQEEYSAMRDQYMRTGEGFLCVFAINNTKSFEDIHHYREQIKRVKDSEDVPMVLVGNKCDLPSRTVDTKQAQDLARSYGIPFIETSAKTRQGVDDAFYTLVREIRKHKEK

This test concerns the target T1, KRAS G12C 1-169, his-tagged protein, GDP-loaded (Homo sapiens, UniProt P01116, G12C).
T1 construct: KRAS G12C 1-169, his-tagged protein, GDP-loaded; His
Briefly: Biochemical assay: covalent binding to KRAS G12C by mass spectrometry. The settings on record: covalently bind to KRAS G12C after a thirty minute incubation period. The procedure: Test compounds were prepared as 10 mM stock solutions in DMSO (Fisher cat #BP-231-100). KRAS G12C 1-169, his-tagged protein, GDP-loaded was diluted to 2 μM or 0.5 μM in buffer (20 mM Hepes, 150 mM NaCl, 1 mM MgCl2). Compounds were tested for activity as follows:
Compounds were diluted to 50× final test concentration in DMSO in 96-well storage plates. Compound stock solutions were vortexed before use and observed carefully for any sign of precipitation. Dilutions were as follow: • For 100 μM final compound concentration, compounds were diluted to 5000 μM (5 μL 10 mM compound stock+5 μL DMSO and mixed well by pipetting. • For 30 […] final compound concentration, compounds were diluted to 1500 μM (3 μL 10 mM compound stock+17 μL DMSO) and mixed well by pipetting. • For 10 μM final compound concentration, compounds were diluted to 500 μM (2 μL 10 mM compound stock+38 μL DMSO) and mixed well by pipetting. 49 μL of the stock protein solution was added to each well of a 96-well PCR plate (Fisher cat #1423027). 1 μl of the diluted 50× compounds were added to appropriate wells in the PCR plate using 12-channel pipettor. Reactions were mixed carefully and thoroughly by pipetting up/down with a 200 μL multi-channel pipettor. The plate was sealed well with aluminum plate seal, and stored in drawer at room temperature for 10 minutes, 30 minutes, 2 hours or 24 hours. 5 μL of 2% formic acid (Fisher cat #A117) in de-ionized H2O was then added to each well followed by mixing with a pipette. The plate was then resealed with aluminum seal and stored on dry ice until analyzed as described below.
The above described assays were analyzed by mass spectrometry according to one of the following two procedures:
The MS instrument is set to positive polarity, 2 GHz resolution, and low mass (1700) mode and allowed to equilibrate for 30 minutes. The instrument is then calibrated, switched to acquisition mode and the appropriate method loaded.
After another 30 minute equilibration time, a blank batch (i.e., buffer) is run to ensure equipment is operating properly. The samples are thawed at 37° C. for 10 minutes, briefly centrifuged, and transfer to the bench top. Wells A1 and H12 are spiked with 1 μL 500 μM internal standard peptide, and the plates centrifuged at 2000×g for 5 minutes. The method is then run and masses of each individual well recorded.
The masses (for which integration data is desired) for each well are pasted into the platemap and exported from the analysis. Masses for the internal standards are exported as well. The data at 50 ppm is extracted for the +19 charge state, and identity of well A1 is assigned using the internal standard spike and integrated. Peak data is exported as a TOF list and the above steps are repeated individually, for the +20, 21, 22, 23, 24, and 25 charge states.
The masses and peak intensities of KRAS G12C protein species were measured using a Dionex RSLCnano system (Thermo Scientific) connected to a Q Exactive Plus mass spectrometer (Thermo Scientific).
[…] of sample was each loaded onto a Aeris™ 3.6 μm WIDEPORE C4 200 Å, LC Column 50×2.1 mm column maintained at 40° C. at a flow rate of 600 μL/min with 20% Solvent A (0.1% formic acid in H2O) and 80% Solvent B (0.1% formic acid in acetonitrile). The liquid chromatography conditions were 20% solvent B for 1 minute, 20% to 60% solvent B for 1.5 minutes, 60% to 90% solvent for 0.5 minute, 90% solvent B for 0.2 minute, 90% to 20% solvent B for 0.2 minute, and then equilibrated for 1.6 minute before the following sample injection. The flow rate was maintained at 600 μL/min throughout the sample analysis.
The mass spectrometer was operated in profile mode at a resolution of 17500, 5 microscans, using 50 msec max injection time and an AGC target of 1×10^6, and a full mass range from 800-1850 m/z was recorded. The HCD trapping gas was optimized for maximum sensitivity for intact proteins. […]
Take `C=CC(=O)N1CC(c2ccc3nc(-c4cc(O)cc5ccccc45)sc3c2)C1` [Compound 4, 1-(3-(2-(3-hydroxynaphthalen-1-yl)benzo[d]thiazol-6-yl)azetidin-1-yl)prop-2-en-1-on]: the Binding % result is given as “+++ (+++ indicates binding activity greater than 50%)”.
On to `C=CC(=O)N1CC(c2ccc3cc(-c4cc(O)cc5ccccc45)sc3c2)C1` [Compound 1, 1-(3-(2-(3-hydroxynaphthalen-1-yl)benzo[b]thiophen-6-yl)azetidin-1-yl)prop-2-en-1-one], for which the Binding % entry is listed as “+++ (+++ indicates binding activity greater than 50%)”.
Under `C=CC(=O)N1CC(c2ccc3nc(-c4c(C)ccc5[nH]ncc45)sc3c2)C1` [Compound 3, 1-(3-(2-(5-methyl-1H-indazol-4-yl)benzo[d]thiazol-6-yl)azetidin-1-yl)prop-2-en-1-one] stands “+ (+ indicates binding activity up to 10%)”; under `C=CC(=O)N1CC(c2ccc3nc(-c4cc(O)cc5ccccc45)oc3c2)C1` [Compound 5, 1-(3-(2-(3-hydroxynaphthalen-1-yl)benzo[d]oxazol-6-yl)azetidin-1-yl)prop-2-en-1-one], “+++ (+++ indicates binding activity greater than 50%)”.
On to `C=CC(=O)N1CC(c2ccc3cc(-c4c(C)ccc5[nH]ncc45)sc3c2)C1` [Compound 2, 1-(3-(2-(5-methyl-1H-indazol-4-yl)benzo[b]thiophen-6-yl)azetidin-1-yl)prop-2-en-1-one], for which the Binding % entry was “++ (++ indicates binding activity from 10 to 50%)”.
To `C=CC(=O)N1CC(c2ccc3nc(-c4c(C)ccc5[nH]ncc45)oc3c2)C1` [Compound 6, 1-(3-(2-(5-methyl-1H-indazol-4-yl)benzo[d]oxazol-6-yl)azetidin-1-yl)prop-2-en-1-one] belongs “++ (++ indicates binding activity from 10 to 50%)”.
